Reference: patent publication US10307413B2, “Tetrahydro- and dihydro-isoquinoline PRMT5 inhibitors and uses thereof” (Epizyme, Inc., priority 2013, dated 2019)
Read-outs that look alike come from different tables or passages of the source.

Legend:
[1] = molecular target: PRMT5/MEP50 (Homo sapiens (Human), UniProt O14744); assay: PRMT5 Biochemical Assay (PRMT5/MEP50 enzyme assay on peptide substrate, 3H-SAM Flashplate)
Summary of the method: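 Radiometric methylation of a biotin-tagged H4(1-15) peptide by human PRMT5/MEP50 from baculovirus/Sf9, with ³H-SAM incorporation read on streptavidin Flashplates. Buffer: Bicine pH 7.6, TCEP, BSG, Tween20; compound preincubated 30 min at 25 °C; stopped with 600 µM final unlabeled SAM. DMSO and SAH controls; IC50 from fitted % inhibition.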

[2] = tested on: Z-138 cell line; assay: Z-138 Proliferation Assay (Cell Titer Glo, 5 days); type: cell-based; details: Homo sapiens, read-out: Proliferation EC50
Summary of the method: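 Viability via CellTiter-Glo luminescence (ATP) after 5-day incubation at 37 °C, 5% CO2. Compounds tested in triplicate, nine 3-fold steps, highest final concentration 20 μM in 0.2% DMSO; 50% inhibitory concentration by 4-parameter fit of normalized curves.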

[3] = tested on: symmetric di-methyl arginine in Z-138 cells; assay: Z-138 Methylation Assay (In Cell Western for symmetric di-methyl arginine and DNA content); type: cell-based; details: Homo sapiens, read-out: ICW EC50
Summary of the method: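 In-cell western: symmetric di-methyl arginine signal ratioed to DRAQ5 DNA content after 96 h compound exposure of Z-138 cells seeded at 50,000 cells/mL.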

[4] = 120 h, Z-138 cells, 5 days, Cell Titer Glo

PRMT5/MEP50, sequence (O14744 other isoform, or with tags, fused parts or gaps): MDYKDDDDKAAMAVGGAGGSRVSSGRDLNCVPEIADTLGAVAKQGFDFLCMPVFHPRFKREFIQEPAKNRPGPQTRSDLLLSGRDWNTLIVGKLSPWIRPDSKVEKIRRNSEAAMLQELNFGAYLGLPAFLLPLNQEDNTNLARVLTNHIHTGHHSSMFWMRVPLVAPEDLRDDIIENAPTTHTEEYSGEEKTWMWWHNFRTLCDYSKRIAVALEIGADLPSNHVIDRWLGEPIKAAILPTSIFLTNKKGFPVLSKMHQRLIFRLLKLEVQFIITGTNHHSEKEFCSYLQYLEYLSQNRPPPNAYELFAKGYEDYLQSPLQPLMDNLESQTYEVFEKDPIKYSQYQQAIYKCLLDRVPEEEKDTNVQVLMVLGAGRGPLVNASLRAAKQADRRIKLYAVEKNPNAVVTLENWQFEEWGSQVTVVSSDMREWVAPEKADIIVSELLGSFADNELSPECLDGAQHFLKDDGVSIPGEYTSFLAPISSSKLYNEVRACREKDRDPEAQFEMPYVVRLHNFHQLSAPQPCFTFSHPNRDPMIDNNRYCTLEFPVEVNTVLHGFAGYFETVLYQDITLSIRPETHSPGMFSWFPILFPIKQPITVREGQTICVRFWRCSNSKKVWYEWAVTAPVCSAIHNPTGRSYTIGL
PRMT5/MEP50, sequence (Q9BQA1 other isoform, or with tags, fused parts or gaps partner): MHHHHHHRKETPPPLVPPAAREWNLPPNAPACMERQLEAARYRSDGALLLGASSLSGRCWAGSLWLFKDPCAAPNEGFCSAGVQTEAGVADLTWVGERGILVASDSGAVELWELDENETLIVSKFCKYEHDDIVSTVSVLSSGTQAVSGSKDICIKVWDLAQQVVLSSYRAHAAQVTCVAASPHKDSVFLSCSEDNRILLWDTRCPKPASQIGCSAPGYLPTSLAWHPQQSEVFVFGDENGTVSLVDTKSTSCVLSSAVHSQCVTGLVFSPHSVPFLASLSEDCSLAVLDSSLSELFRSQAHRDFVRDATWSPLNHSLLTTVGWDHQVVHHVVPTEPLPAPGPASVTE

Row | IC50 [1] [nM] | EC50 [3] [nM] | IC50 ([1]; PRMT5 biochemical assay) [nM] | EC50 ([3]; In Cell Western methylation) [nM] | Compound | EC50 ([2]; 120 h, Z-138 cells, 5 days) [nM] | EC50 [2, 4] [nM] | EC50 ([2]; Z-138, 120 h) [nM]
1 |  |  | 101 to 1000 | > 1000 | O=C(NC[C@H](O)CN1CCc2ccccc2C1)C1=CC2=NC(CO)CN2C=N1 (stereo partly drawn) [Compound 473] |  | > 20000 | 
2 |  |  | < 100 | < 100 | CNC(=O)[C@H]1CC[C@H](Nc2cc(C(=O)NC[C@H](O)CN3CCc4ccccc4C3)ncn2)CC1 [Compound 602] |  | 101 to 1000 | 
3 |  |  | < 100 | < 100 | CC(=O)N1CCC(Nc2cc(C(=O)NC[C@H](O)CN3CCc4ccccc4C3)nc(N3CCN(C(C)=O)CC3)c2)CC1 [Compound 679] |  | 101 to 1000 | 
4 |  |  | < 100 | < 100 | CO[C@H]1C[C@H](Nc2cc(C(=O)NC[C@H](O)CN3CCc4ccccc4C3)ncn2)C1 [Compound 559] |  | 101 to 1000 | 
5 |  |  | < 100 | < 100 | CC(=O)N(C)[C@H]1CC[C@@H](Nc2cc(C(=O)NC[C@H](O)CN3CCc4ccccc4C3)ncn2)CC1 [Compound 632] |  | 101 to 1000 | 
6 |  |  | < 100 | 101 to 1000 | CN(C)CCN(C)c1nc(NC2CNC2)cc(C(=O)NC[C@H](O)CN2CCc3ccccc3C2)n1 [Compound 528] |  | 101 to 1000 | 
7 |  |  | < 100 | < 100 | CC(=O)N1CCC(Nc2cc(C(=O)NCC(C)(O)CN3CCc4ccccc4C3)ncn2)CC1 (stereo not drawn) [Compound 649] |  | 1000 to 10000 | 
8 |  |  | < 100 | < 100 | COCCN(CCOC)[C@H]1C[C@@H](Nc2cc(C(=O)NC[C@H](O)CN3CCc4ccccc4C3)ncn2)C1 [Compound 562] |  | 101 to 1000 | 
9 |  |  | < 100 | < 100 | CC(=O)[C@H]1CC[C@@H](Nc2cc(C(=O)NC[C@H](O)CN3CCc4ccccc4C3)ncn2)CC1 [Compound 615] |  | < 100 | 
10 |  |  | < 100 | < 100 | CCc1nc(NC2COC2)cc(C(=O)NC[C@H](O)CN2CCc3ccccc3C2)n1 [Compound 452] |  | 101 to 1000 | 
11 |  |  | < 100 | < 100 | CN(C)C(=O)[C@H]1C[C@H](Nc2cc(C(=O)NC[C@H](O)CN3CCc4ccccc4C3)ncn2)C1 [Compound 507] |  | 101 to 1000 | 
12 |  |  | < 100 | < 100 | O=C(NC[C@H](O)CN1CCc2ccccc2C1)c1ccnc(NC2CN(C(=O)C3CCC3)C2)c1 [Compound 530] |  | < 100 | 
13 |  |  | < 100 | < 100 | COc1nc(NC2COC2)cc(C(=O)NC[C@H](O)CN2CCc3ccccc3C2)n1 [Compound 465] |  | 101 to 1000 | 
14 |  |  | < 100 | < 100 | COCCN1CCN(c2nc(NC3COC3)cc(C(=O)NC[C@H](O)CN3CCc4ccccc4C3)n2)CC1 [Compound 496] |  | < 100 | 
15 |  |  | < 100 | < 100 | O=C(NC[C@H](O)CN1CCc2ccccc2C1)c1ncnc(NC2COC2)c1Cl [Compound 437] |  | 1000 to 10000 | 
16 | 101 to 1000 | > 1000 |  |  | Cc1cnc(NC2CN(CC(F)(F)F)C2)cc1C(=O)NC[C@H](O)CN1CCc2ccccc2C1 [Compound 356] | > 20000 |  | 
17 |  |  | < 100 | < 100 | CC(=O)N1CC(Nc2cc(C(=O)NC[C@H](O)CN3CCc4c(C)cccc4C3)ncn2)C1 [Compound 676] |  | 1000 to 10000 | 
18 |  |  | < 100 | < 100 | Cc1cc(Nc2cc(C(=O)NC[C@H](O)CN3CCc4ccccc4C3)ncn2)n[nH]1 [Compound 432] |  | 1000 to 10000 | 
19 |  |  | < 100 | < 100 | CC(=O)N1CCC(Nc2cc(C(=O)NC[C@H](O)CN3CCc4ccccc4C3)cc(N3CCN(C(C)=O)CC3)n2)CC1 [Compound 613] |  | 101 to 1000 | 
20 |  |  | < 100 | < 100 | CC(=O)N1CC(Nc2cc(C(=O)NC[C@H](O)CN3CCc4ccccc4C3)nc(N3CCCCC3)n2)C1 [Compound 441] |  | < 100 | 
21 |  |  | < 100 | < 100 | CC(=O)N(C)[C@H]1C[C@H](Nc2cc(C(=O)NC[C@H](O)CN3CCc4ccccc4C3)ncn2)C1 [Compound 564] |  | 101 to 1000 | 
22 | < 100 | < 100 |  |  | O=C(NC[C@H](O)CN1CCc2ccccc2C1)c1cncc(OC2CCN(CC(F)(F)F)CC2)c1 [Compound 289] | 101 to 1000 |  | 
23 |  |  | < 100 | < 100 | CC(C)C(=O)N1CCC(Nc2cc(C(=O)NC[C@H](O)CN3CCc4ccccc4C3)ccn2)CC1 [Compound 469] |  | < 100 | 
24 |  |  | < 100 | < 100 | O=C(NC[C@H](O)CN1CCc2ccccc2C1)c1cc(N[C@H]2CC[C@@H](C(=O)N3CCOCC3)CC2)ncn1 [Compound 599] |  | 1000 to 10000 | 

Further lines, the molecule ahead of its results:

Row | Compound | IC50 [1] [nM] | EC50 [3] [nM] | IC50 ([1]; PRMT5 biochemical assay) [nM] | EC50 ([3]; In Cell Western methylation) [nM] | EC50 ([2]; 120 h, Z-138 cells, 5 days) [nM] | EC50 [2, 4] [nM] | EC50 ([2]; Z-138, 120 h) [nM]
25 | O=C(NC[C@H](O)CN1CCc2ccccc2C1)c1ccc(OCCCN2CCC2)cc1 [Compound 373] | < 100 | < 100 |  |  | 1000 to 10000 |  | 
26 | C[C@@H](N1CC(Nc2cc(C(=O)NC[C@H](O)CN3CCc4ccccc4C3)ncn2)C1)C(F)(F)F [Compound 446] |  |  | < 100 | < 100 |  | 1000 to 10000 | 
27 | CC(=O)N1CCC(Nc2cc(C(=O)NC[C@H](O)CN3CCc4ccccc4C3)cc(N3CCOCC3)n2)CC1 [Compound 611] |  |  | < 100 | < 100 |  | < 100 | 
28 | CC(C)CC(=O)N1CC(Nc2cc(C(=O)NC[C@H](O)CN3CCc4ccccc4C3)ncn2)C1 [Compound 417] |  |  | < 100 | < 100 |  | < 100 | 
29 | Cn1ccc(Nc2cc(C(=O)NC[C@H](O)CN3CCc4ccccc4C3)ccn2)n1 [Compound 342] | < 100 | < 100 |  |  | 1000 to 10000 |  | 
30 | O=C(NC[C@H](O)CN1CCc2ccccc2C1)c1cc(NC2CCN(C(=O)C3CC3)CC2)ncn1 [Compound 418] |  |  | < 100 | < 100 |  | < 100 | 
31 | O=C(NC[C@H](O)CN1CCc2ccccc2C1)c1ccc(OCCCN2CCOCC2)cc1 [Compound 363] | < 100 | < 100 |  |  | 1000 to 10000 |  | 
32 | COCCN(C)c1nc(NC2COC2)cc(C(=O)NC[C@H](O)CN2CCc3ccccc3C2)n1 [Compound 460] |  |  | < 100 | < 100 |  | < 100 | 
33 | CC(=O)N1CCC(Nc2cc(C(=O)NC[C@H](O)CN3CCc4c(C)cccc4C3)ccn2)CC1 [Compound 670] |  |  | < 100 | < 100 |  | 101 to 1000 | 
34 | CNCCOc1ccc2cc(C(=O)NC[C@H](O)CN3CCc4ccccc4C3)ccc2c1 [Compound 361] | 101 to 1000 | < 100 |  |  | 1000 to 10000 |  | 
35 | O=C(NC[C@H](O)CN1CCc2ccccc2C1)c1ccnc(NC2CN(C(=O)C3CC3)C2)c1 [Compound 490] |  |  | < 100 | < 100 |  | < 100 | 
36 | COC(CNC(=O)c1cc(NC2CCN(C(=O)C3CC3)CC2)ncn1)CN1CCc2ccccc2C1 (stereo not drawn) [Compound 553] |  |  | < 100 | 101 to 1000 |  | > 5000 | 
37 | O=C(NC[C@H](O)CN1CCc2ccccc2C1)c1cc(NC2CNC2)nc(N2CCC2)n1 [Compound 502] |  |  | < 100 | 101 to 1000 |  | 1000 to 10000 | 
38 | CCSCCNc1cc(C(=O)NC[C@H](O)CN2CCc3ccccc3C2)ncn1 [Compound 556] |  |  | < 100 | < 100 |  |  | 101 to 1000
39 | CN(CCN)c1nc(NC2CNC2)cc(C(=O)NC[C@H](O)CN2CCc3ccccc3C2)n1 [Compound 481] |  |  | < 100 | 101 to 1000 |  | 1000 to 10000 | 
40 | CC(C)(O)CN1CCC(Nc2cc(C(=O)NC[C@H](O)CN3CCc4ccccc4C3)ncn2)CC1 [Compound 579] |  |  | < 100 | < 100 |  | 101 to 1000 | 
41 | CC(O)(CNC(=O)c1cc(NC2CCN(C(=O)C3CC3)CC2)ncn1)CN1CCc2ccccc2C1 (stereo not drawn) [Compound 650] |  |  | < 100 | < 100 |  | 1000 to 10000 | 
42 | O=C(NC[C@H](O)CN1CCc2ccccc2C1)c1ccc2cc(OCCNCCO)ccc2c1 [Compound 368] | < 100 | < 100 |  |  | 1000 to 10000 |  | 
43 | O=C(NC[C@H](O)CN1CCc2ccccc2C1)c1ccc(OCCN2CCCC2)cc1 [Compound 383] | < 100 | < 100 |  |  | 1000 to 10000 |  | 
44 | O=C(NC[C@H](O)CN1CCc2ccccc2C1)c1ccc(OCCCN2CCCCC2)cc1 [Compound 362] | 101 to 1000 | < 100 |  |  | 101 to 1000 |  | 
45 | CC(=O)N1CCC(Nc2cc(C(=O)NC[C@H](O)CN3CCc4ccccc4C3C)ncn2)CC1 (stereo partly drawn) [Compound 584] |  |  | < 100 | < 100 |  | 1000 to 10000 | 
46 | CCNCCOc1ccc(C(=O)NC[C@H](O)CN2CCc3ccccc3C2)cc1 [Compound 391] | < 100 | < 100 |  |  | 1000 to 10000 |  | 
47 | CNC(=O)[C@H]1C[C@@H](Nc2cc(C(=O)NC[C@H](O)CN3CCc4ccccc4C3)ncn2)C1 [Compound 513] |  |  | < 100 | < 100 |  | 101 to 1000 | 
48 | O=C(NC[C@H](O)CN1CCc2ccccc2C1)c1cc(N[C@H]2C[C@@H](N3CCOCC3)C2)ncn1 [Compound 637] |  |  | < 100 | < 100 |  | 101 to 1000 | 
49 | CN1CCN(c2cc(C(=O)NC[C@H](O)CN3CCc4ccccc4C3)cc(NC3CCC3)n2)CC1 [Compound 413] |  |  | < 100 | < 100 |  | < 100 | 
50 | CC(=O)N1CCC(Nc2cc(C(=O)NCC(C)CN3CCc4ccccc4C3)ccn2)CC1 (stereo not drawn) [Compound 660] |  |  | < 100 | < 100 |  | 101 to 1000 | 
